The record followed here is US10851098B2, “Azole amides and amines as alpha v integrin inhibitors” (BRISTOL-MYERS SQUIBB COMPANY, priority 2016, dated 2020).

T1 sequence (P06756 31-992 limits assumed): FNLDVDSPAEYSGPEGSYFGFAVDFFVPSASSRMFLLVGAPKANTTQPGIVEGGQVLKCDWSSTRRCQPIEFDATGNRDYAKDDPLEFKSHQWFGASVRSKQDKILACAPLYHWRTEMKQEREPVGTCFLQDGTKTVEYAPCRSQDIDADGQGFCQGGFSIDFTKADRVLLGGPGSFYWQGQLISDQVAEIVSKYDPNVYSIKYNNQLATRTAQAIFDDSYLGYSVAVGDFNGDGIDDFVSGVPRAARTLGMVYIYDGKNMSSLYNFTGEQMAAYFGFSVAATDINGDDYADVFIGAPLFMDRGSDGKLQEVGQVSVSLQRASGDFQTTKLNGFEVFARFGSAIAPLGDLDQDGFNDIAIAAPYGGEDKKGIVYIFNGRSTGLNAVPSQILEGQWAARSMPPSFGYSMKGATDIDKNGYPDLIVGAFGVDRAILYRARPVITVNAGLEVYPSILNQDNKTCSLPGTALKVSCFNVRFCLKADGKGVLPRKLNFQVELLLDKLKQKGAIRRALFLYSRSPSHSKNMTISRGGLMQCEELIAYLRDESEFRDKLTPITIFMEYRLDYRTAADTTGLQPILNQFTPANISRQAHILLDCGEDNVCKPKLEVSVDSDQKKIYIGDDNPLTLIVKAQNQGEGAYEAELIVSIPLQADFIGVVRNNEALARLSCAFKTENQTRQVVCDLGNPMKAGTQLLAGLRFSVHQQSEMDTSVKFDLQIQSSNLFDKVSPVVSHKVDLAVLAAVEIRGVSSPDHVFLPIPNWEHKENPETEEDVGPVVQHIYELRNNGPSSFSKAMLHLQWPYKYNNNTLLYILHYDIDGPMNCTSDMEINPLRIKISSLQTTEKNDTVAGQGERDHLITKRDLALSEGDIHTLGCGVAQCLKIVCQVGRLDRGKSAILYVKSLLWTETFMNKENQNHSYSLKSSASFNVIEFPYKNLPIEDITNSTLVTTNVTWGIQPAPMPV
T1 sequence (P18564 22-707 limits assumed): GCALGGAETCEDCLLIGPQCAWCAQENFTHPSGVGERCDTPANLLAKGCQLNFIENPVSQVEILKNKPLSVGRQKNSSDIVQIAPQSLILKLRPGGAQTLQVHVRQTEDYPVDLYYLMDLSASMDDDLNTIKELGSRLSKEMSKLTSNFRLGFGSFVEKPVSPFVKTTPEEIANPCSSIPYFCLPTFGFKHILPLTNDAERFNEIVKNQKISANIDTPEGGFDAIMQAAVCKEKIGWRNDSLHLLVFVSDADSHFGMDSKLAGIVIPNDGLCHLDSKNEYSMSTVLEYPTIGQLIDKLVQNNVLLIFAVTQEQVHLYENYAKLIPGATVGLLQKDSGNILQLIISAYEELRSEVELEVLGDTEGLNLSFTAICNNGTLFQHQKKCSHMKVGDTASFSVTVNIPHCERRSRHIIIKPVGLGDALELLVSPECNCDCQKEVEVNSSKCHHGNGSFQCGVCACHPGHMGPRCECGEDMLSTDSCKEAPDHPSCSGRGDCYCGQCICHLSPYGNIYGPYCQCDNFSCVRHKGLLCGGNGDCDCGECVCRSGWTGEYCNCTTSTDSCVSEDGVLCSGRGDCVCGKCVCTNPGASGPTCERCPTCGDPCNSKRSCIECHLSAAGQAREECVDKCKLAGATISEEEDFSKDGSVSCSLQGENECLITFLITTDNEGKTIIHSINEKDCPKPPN

This test concerns the target T1, human αVβ6 (Homo sapiens, UniProt P06756+P18564).
T1 construct: purchased R & D systems 3817-AV
Description: human αVβ6 HTRF binding assay. The procedure: All binding assays used the HTRF (homogeneous time resolved fluorescence) technology from Cisbio International, therefore all assays are described as HTRF binding assays. The assay results for the Examples are listed above together with the characterization data. The HTRF binding assays are established for the following integrins: human αVβ6, human αVβ1, human αVβ3, human αVβ5, and human αVβ8. All assays used the following assay buffer: 20 mM Tris, pH 7.4, 1 mM MgCl2, 1 mM MnCl2, 0.01% Tween 20, and 0.01% BSA. Alternatively, a SPA-based assay was used for evaluation of receptor binding.
[…]
On the technique in general: In TR-FRET formats the signal depends on donor and acceptor labels being close together.
As for `COc1ccc([C@H](CC(=O)O)NC(=O)c2cnn(CCc3ccc4c(n3)NCCC4)c2CO)cc1F` [Example 33], the concentration for half-maximal inhibition (IC50) was 0.0094 µM.
`CC(C)(C)OCc1c(C(=O)NC(CC(=O)O)c2cccc(-n3cccc3)c2)cnn1CCc1ccc2c(n1)NCCC2` (stereo not shown) [Example 34] displayed a half-inhibitory concentration (IC50) of 0.01 µM.
For `O=C(O)CC(NC(=O)c1cnn(CCc2ccc3c(n2)NCCC3)c1CO)c1ccc(Cl)c(C(F)(F)F)c1` (stereo not shown) [Example 35], the IC50 was 0.01 µM.
`O=C(O)CC(NC(=O)c1cnn(CCc2ccc3c(n2)NCCC3)c1CO)c1cccc(OC(F)(F)F)c1` (stereo not shown) [Example 36] showed an IC50 of 0.011 µM.
As to `Cc1cc(C)n(-c2cccc(C(CC(=O)O)NC(=O)c3cnn(CCc4ccc5c(n4)NCCC5)c3COC(C)(C)C)c2)n1` (stereo not shown) [Example 37], the IC50 worked out at 0.012 µM.
Turning to `O=C(O)CC(NC(=O)c1cnn(CCc2ccc3c(n2)NCCC3)c1CO)c1cccc(Oc2cc(Cl)cc(Cl)c2)c1` (stereo not shown) [Example 38], the IC50 stood at 0.013 µM. This IC50 and that of the compound before are within 1.5-fold of each other.
Take `COc1ccc([C@H](CC(=O)O)NC(=O)c2cnn(CCc3ccc4c(n3)NCCC4)c2)cc1F` [Example 39]: the IC50 stood at 0.015 µM. The IC50 values of the last two compounds are within 1.5-fold of each other.
As for `CN(C(=O)c1cnn(CCc2ccc3c(n2)NCCC3)c1CO)C(CC(=O)O)c1cc(Cl)cc(Cl)c1` (stereo not shown) [Example 40], the IC50 was determined as 0.014 µM.
`CC(C)(C)OCc1c(C(=O)NC(CC(=O)O)c2cc(Cl)cc(Cl)c2)cnn1CCc1ccc2c(n1)NCCC2` (stereo not shown) [Example 41] gave an IC50 of 0.014 µM.
The result for `Cc1cc(C)n(-c2cccc(C(CC(=O)O)NC(=O)c3cnn(CCc4ccc5c(n4)NCCC5)c3CO)c2)n1` (stereo not shown) [Example 42] reads 0.016 µM.
`COc1ccc([C@H](CC(=O)O)NC(=O)c2cnn(CCc3ccc4c(n3)NCCC4)c2CO)cn1` [Example 43] showed an IC50 of 0.016 µM.
`O=C(O)CC(NC(=O)c1cnn(CCc2ccc3c(n2)NCCC3)c1CO)c1cccc(C(F)(F)F)c1` (stereo not shown) [Example 44] yielded an IC50 of 0.016 µM. In other words, the double-digit nanomolar range.
The compound `CN(C(=O)c1cnn(CCCc2ccc3c(n2)NCCC3)c1)[C@@H](CC(=O)O)c1cc(Cl)cc(Cl)c1` [Example 45] had an IC50 of 0.018 µM.
Turning to `COc1ccc([C@H](CC(=O)O)NC(=O)c2cnn(CCc3ccc4c(n3)NCCC4)c2)cn1` [Example 46], the 50% inhibitory concentration (IC50) is 0.021 µM.
Regarding `O=C(O)CC(NC(=O)c1cnn(CCc2ccc3c(n2)NCCC3)c1CO)c1cc(Cl)cc(Cl)c1` (stereo not shown) [Example 47], the IC50 is 0.022 µM. This IC50 and that of the compound before are within 1.5-fold of each other.
In the case of `CN(C(=O)c1cn(CCc2ccc3c(n2)NCCC3)nc1C(F)(F)F)[C@@H](CC(=O)O)c1cc(Cl)cc(Cl)c1` [Example 48], the IC50 was 0.022 µM.
For `Cc1c(C(=O)NC(CC(=O)O)c2cc(Cl)cc(Cl)c2)cnn1CCc1ccc2c(n1)NCCC2` (stereo not shown) [Example 49], the IC50 was 0.023 µM.
For the compound `COc1ccc([C@H](CC(=O)O)NC(=O)c2cnn(CCc3ccc4c(n3)NCCC4)c2COC(C)(C)C)cc1F` [Example 50], the IC50 came out at 0.026 µM.
In turn, `CC(C)(C)OCc1c(C(=O)NC(CC(=O)O)c2cccc(Oc3cc(Cl)cc(Cl)c3)c2)cnn1CCc1ccc2c(n1)NCCC2` (stereo not shown) [Example 51] returned an IC50 of 0.028 µM. This IC50 and that of the compound before are within 1.5-fold of each other.
As for `Cc1ccc(C(CC(=O)O)NC(=O)c2cnn(CCc3ccc4c(n3)NCCC4)c2CO)cc1C` (stereo not shown) [Example 52], the IC50 turned out to be 0.029 µM.
In turn, `N#Cc1cccc(C(CC(=O)O)NC(=O)c2cnn(CCc3ccc4c(n3)NCCC4)c2CO)c1` (stereo not shown) [Example 53] came in with a half-inhibitory concentration (IC50) of 0.03 µM.
Consider `COc1ccc([C@H](CC(=O)O)NC(=O)c2cn(CCc3ccc4c(n3)NCCC4)nc2C)cc1F` [Example 54], for which the IC50 came out at 0.03 µM.
On to `Cc1cccc(C(CC(=O)O)NC(=O)c2cnn(CCc3ccc4c(n3)NCCC4)c2CO)c1` (stereo not shown) [Example 55], for which the IC50 is 0.032 µM.
In the case of `O=C(O)CC(NC(=O)c1cnn(CCc2ccc3c(n2)NCCC3)c1)c1ccc2c(c1)OCO2` (stereo not shown) [Example 56], the IC50 was determined as 0.037 µM.
Compound `Cc1nn(CCc2ccc3c(n2)NCCC3)c(C)c1C(=O)NC(CC(=O)O)c1ccc(Cl)c(Cl)c1` (stereo not shown) [Example 57] yielded an IC50 of 0.04 µM.
Turning to `O=C(O)CC(NC(=O)c1cnn(CCc2ccc3c(n2)NCCC3)c1CO)c1ccc(Cl)c(Cl)c1` (stereo not shown) [Example 58], the IC50 was 0.04 µM. This lies in the double-digit nanomolar range.
For `CC(C)(C)OCc1c(C(=O)NC(CC(=O)O)c2cc(Cl)cc(Cl)c2)cnn1CCCc1ccc2c(n1)NCCC2` (stereo not shown) [Example 59], the IC50 is 0.04 µM. That is a double-digit nanomolar value.
Consider `O=C(O)C[C@H](NC(=O)c1cnn(CCCc2ccc3c(n2)NCCC3)c1)c1cc(Cl)cc(Cl)c1` [Example 60], for which the IC50 worked out at 0.046 µM.
For `CC(C)(C)c1cc(Br)cc([C@H](CC(=O)O)NC(=O)c2cnn(CCCc3ccc4c(n3)NCCC4)c2)c1` [Example 61], the IC50 amounted to 0.049 µM.
The compound `O=C(O)CC(NC(=O)c1cnn(CCc2ccc3c(n2)NCCC3)c1CO)c1ccc(C(F)(F)F)cc1` (stereo not shown) [Example 62] came in with a 50% inhibitory concentration (IC50) of 0.049 µM.
With `CC(C)(C)c1cc(Br)cc([C@H](CC(=O)O)NC(=O)c2cn(CCc3ccc4c(n3)NCCC4)nc2C(F)(F)F)c1` [Example 63], the IC50 is 0.056 µM.
The result for `O=C(O)CC(NC(=O)c1cnn(CCc2ccc3c(n2)NCCC3)c1CO)c1cccc(-n2cccc2)c1` (stereo not shown) [Example 64] reads 0.064 µM; that for `O=C(O)CC(NC(=O)c1cnn(CCc2ccc3c(n2)NCCC3)c1CO)c1ccc2c(c1)OCO2` (stereo not shown) [Example 65], 0.064 µM.
Compound `Cc1ccc(C(CC(=O)O)NC(=O)c2cnn(CCc3ccc4c(n3)NCCC4)c2CO)cc1` (stereo not shown) [Example 66] gave an IC50 of 0.091 µM.
On to `O=C(O)CC(NC(=O)c1cnn(CCc2ccc3c(n2)NCCC3)c1CO)c1ccc(Cl)cc1` (stereo not shown) [Example 67], for which the IC50 is 0.095 µM.
`O=C(O)CC(NC(=O)c1cnn(CCCc2ccc3c(n2)NCCC3)c1CO)c1cc(Cl)cc(Cl)c1` (stereo not shown) [Example 68] showed an IC50 of 0.098 µM.
On to `O=C(O)CC(NC(=O)c1cnn(CCc2ccc3c(n2)NCCC3)c1-c1ccccc1)c1cc(Cl)cc(Cl)c1` (stereo not shown) [Example 69], for which the IC50 amounted to 0.111 µM.
Compound `Cc1nn(CCc2ccc3c(n2)NCCC3)cc1C(=O)NC(CC(=O)O)c1cc(Cl)cc(Cl)c1` (stereo not shown) [Example 70] returned a 50% inhibitory concentration (IC50) of 0.112 µM.
`O=C(O)CC(NC(=O)c1cnn(CCc2ccc3c(n2)NCCC3)c1CO)c1ccc(F)cc1` (stereo not shown) [Example 71] showed an IC50 of 0.12 µM.
`O=C(O)CC(NC(=O)c1cnn(CCc2ccc3c(n2)NCCC3)c1CO)c1ccccc1` (stereo not shown) [Example 72] came in with an IC50 of 0.124 µM.
Compound `COc1ccc(C(CC(=O)O)NC(=O)c2cnn(CCc3ccc4c(n3)NCCC4)c2CO)cc1` (stereo not shown) [Example 73] had an IC50 of 0.124 µM.
Compound `COc1ccc([C@H](CC(=O)O)NC(=O)c2cnn(CCCc3ccc4c(n3)NCCC4)c2)cc1F` [Example 74] had an IC50 of 0.125 µM.
As for `O=C(O)CC(NC(=O)c1cnn(CCc2ccc3c(n2)NCCC3)c1CO)c1cccc(F)c1` (stereo not shown) [Example 75], the IC50 is 0.13 µM.
`COc1ccc(C(CC(=O)O)NC(=O)c2cnn(CCc3ccc4c(n3)NCCC4)c2CO)cc1OC` (stereo not shown) [Example 76]: the IC50 was determined as 0.131 µM.
Compound `Cc1nn(CCc2ccc3c(n2)NCCC3)c(C)c1C(=O)NC(CC(=O)O)c1ccc(C(F)(F)F)cc1` (stereo not shown) [Example 77] registered an IC50 of 0.134 µM.
`O=C(O)CC(NC(=O)c1cn(CCc2ccc3c(n2)NCCC3)nc1-c1ccccc1)c1ccc(Cl)c(Cl)c1` (stereo not shown) [Example 78] had an IC50 of 0.137 µM.
The result for `O=C(O)CC(NC(=O)c1cnn(CCc2ccc3c(n2)NCCC3)c1CO)c1cc(F)cc(F)c1` (stereo not shown) [Example 80] reads 0.178 µM; that for `Cc1cc(C)c(S(=O)(=O)N[C@H](CNC(=O)c2cnn(CCc3cc4c(nc3C)NCCC4)c2)C(=O)O)c(C)c1` [Example 81], 0.215 µM.
Regarding `O=C(O)CC(NC(=O)c1cn(CCc2ccc3c(n2)NCCC3)nc1-c1ccccc1)c1cc(Cl)cc(Cl)c1` (stereo not shown) [Example 82], the IC50 was found to be 0.244 µM. The IC50 values of the last two compounds are within 1.5-fold of each other.
In turn, `Cc1nn(CCc2ccc3c(n2)NCCC3)c(C)c1C(=O)NC(CC(=O)O)c1cc(Cl)cc(Cl)c1` (stereo not shown) [Example 83] gave an IC50 of 0.278 µM.
The result for `CC(C)(C)OCc1nn(CCc2ccc3c(n2)NCCC3)cc1C(=O)NC(CC(=O)O)c1ccc(Cl)c(Cl)c1` (stereo not shown) [Example 84] reads 0.284 µM; that for `O=C(NCC(C(=O)O)c1ccccc1)c1cnn(CCc2ccc3c(n2)NCCC3)c1` (stereo not shown) [Example 85], 0.321 µM; that for `COc1ccc([C@H](CC(=O)O)NC(=O)c2cnn(CCCc3ccc4c(n3)NCCC4)c2)cn1` [Example 87], 0.339 µM.
`COc1ccc([C@H](CC(=O)O)NC(=O)c2cnn(CCCNC3=NCCN3)c2)cn1` [Example 88] showed an IC50 of 0.378 µM.
Regarding `CC(C)CC(CC(=O)O)NC(=O)c1cnn(CCc2ccc3c(n2)NCCC3)c1` (stereo not shown) [Example 89], the IC50 was 0.399 µM. The IC50 values of the last two compounds are within 1.5-fold of each other.
The result for `O=C(O)CC(CCc1ccccc1)NC(=O)c1cnn(CCc2ccc3c(n2)NCCC3)c1` (stereo not shown) [Example 90] reads 0.401 µM; that for `COc1ccc([C@H](CC(=O)O)NC(=O)c2cnn(CCc3ccc4c(n3)NCCC4)c2-c2ccccc2)cc1F` [Example 91], 0.41 µM; that for `Cc1ccccc1[C@H](CC(=O)O)NC(=O)c1cnn(CCc2ccc3c(n2)NCCC3)c1CO` [Example 92], 0.416 µM.
In turn, `CN(C(=O)c1cnn(CCc2ccc3c(n2)NCCC3)c1)[C@H](CC(=O)O)c1cc(Cl)cc(Cl)c1` [Example 93] displayed an IC50 of 0.446 µM. The IC50 values of the last two compounds are within 1.5-fold of each other.
The result for `COc1ccc([C@H](CC(=O)O)NC(=O)c2cnn(CCCNc3ccccn3)c2)cn1` [Example 94] reads 0.592 µM; that for `CC(C)(C)OCc1nn(CCc2ccc3c(n2)NCCC3)cc1C(=O)NC(CC(=O)O)c1ccc(C(F)(F)F)cc1` (stereo not shown) [Example 95], 1.05 µM.

In general, IC50 refers to the concentration needed to halve the response being measured.
